Test results as given in the supplement of paper PMC6045584.
± gives the standard deviation of the averaged measurements.

Legend:
[1] = compound: CC1(C)CC(=O)c2c(C(F)(F)F)nn(-c3ccc(C(N)=O)c(N[C@H]4CC[C@H](OC(=O)CN)CC4)c3)c2C1 [SNX-5422]; experiment: surviving fraction relative to DMSO-only wells; higher = less growth inhibition; settings: exposure time: 5 days
Outline: (§1)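 Tumour cell lines were seeded in log phase at 250–500 cells per well into 384-well plates. Starting 24 hours later, inhibitors were present continuously for five days at 0.5, 1, 5, 10, 50, 100, 500 and 1000 nM. Surviving fraction, from CellTiter-Glo luminescence, is normalised to the median of DMSO-only wells. Three screens per line were required, with replicate Pearson r >0.7 and median Z' >0.3 for a line to be kept.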

[2] = compound: CNC(=O)c1ccc(N2C(=S)N(c3ccc(C#N)c(C(F)(F)F)c3)C(=O)C2(C)C)cc1F [MDV3100]; experiment: as above; settings: exposure time: 5 days
Outline: as §1

Test System | surviving fraction ([1]; 0.5 nM) | surviving fraction ([1]; 1 nM) | surviving fraction ([1]; 5 nM) | surviving fraction ([1]; 10 nM) | surviving fraction ([1]; 50 nM) | surviving fraction ([1]; 100 nM) | surviving fraction ([1]; 500 nM) | surviving fraction ([1]; 1000 nM) | surviving fraction ([2]; 0.5 nM) | surviving fraction ([2]; 1 nM) | surviving fraction ([2]; 5 nM) | surviving fraction ([2]; 10 nM) | surviving fraction ([2]; 50 nM) | surviving fraction ([2]; 100 nM) | surviving fraction ([2]; 500 nM) | surviving fraction ([2]; 1000 nM)
MDAMB134 BREAST | 0.902 ± 0.096 | 1.17 ± 0.23 | 0.892 ± 0.26 | 0.956 ± 0.052 | 0.789 ± 0.098 | 0.884 ± 0.036 | 0.543 ± 0.0057 | 0.54 ± 0.12 | 0.813 ± 0.09 | 0.82 ± 0.1 | 0.894 ± 0.2 | 0.918 ± 0.0099 | 1.06 ± 0.15 | 0.794 ± 0.033 | 1.17 ± 0.018 | 0.992 ± 0.25
MDAMB453 BREAST | 1.02 ± 0.034 | 1.08 ± 0.036 | 1.08 ± 0.028 | 1.08 ± 0.037 | 0.458 ± 0.055 | 0.254 ± 0.016 | 0.0493 ± 0.013 | 0.0633 ± 0.017 | 0.953 ± 0.045 | 0.942 ± 0.071 | 0.962 ± 0.055 | 0.98 ± 0.07 | 0.956 ± 0.054 | 0.967 ± 0.037 | 0.985 ± 0.032 | 0.924 ± 0.0079
ASKA SYNOVIAL | 0.957 ± 0.041 | 0.967 ± 0.015 | 0.963 ± 0.035 | 0.883 ± 0.062 | 0.461 ± 0.05 | 0.233 ± 0.01 | 0.231 ± 0.0067 | 0.293 ± 0.0035 | 1.01 ± 0.051 | 0.966 ± 0.037 | 1.05 ± 0.017 | 0.59 ± 0.051 | 1.15 ± 0.13 | 1.07 ± 0.065 | 1.14 ± 0.095 | 0.678 ± 0.079
93VU HEADNECK | 1.14 ± 0.02 | 1.15 ± 0.029 | 1.31 ± 0.069 | 1.24 ± 0.085 | 0.648 ± 0.074 | 0.199 ± 0.041 | 0.0953 ± 0.0047 | 0.0957 ± 0.012 | 0.848 ± 0.096 | 0.876 ± 0.058 | 1.05 ± 0.099 | 0.994 ± 0.12 | 1.07 ± 0.15 | 1.04 ± 0.22 | 0.887 ± 0.03 | 0.771 ± 0.016
HCC1954 BREAST | 0.8303 ± 0.0039 | 0.93 ± 0.028 | 0.873 ± 0.042 | 0.762 ± 0.06 | 0.151 ± 0.0095 | 0.109 ± 0.0067 | 0.0587 ± 0.0011 | 0.062 ± 0.0021 | 1.12 ± 0.018 | 0.975 ± 0.18 | 1.17 ± 0.19 | 1.25 ± 0.25 | 0.919 ± 0.077 | 0.909 ± 0.017 | 0.9483 ± 0.0088 | 0.771 ± 0.012
S68 BREAST | 0.798 ± 0.3 | 1.09 ± 0.27 | 0.891 ± 0.2 | 0.913 ± 0.18 | 0.154 ± 0.019 | 0.128 ± 0.021 | 0.06 ± 0.0035 | 0.0703 ± 0.0051 | 0.974 ± 0.2 | 1.04 ± 0.035 | 1.08 ± 0.11 | 1.04 ± 0.027 | 1.24 ± 0.076 | 1.34 ± 0.2 | 0.962 ± 0.21 | 0.949 ± 0.22
HCC78 LUNG | 0.808 ± 0.27 | 1.2 ± 0.38 | 1.03 ± 0.17 | 1 ± 0.079 | 0.0547 ± 0.01 | 0.113 ± 0.049 | 0.0627 ± 0.016 | 0.088 ± 0.007 | 0.976 ± 0.13 | 0.75 ± 0.27 | 1.03 ± 0.11 | 0.972 ± 0.14 | 0.799 ± 0.14 | 0.925 ± 0.092 | 0.664 ± 0.045 | 0.451 ± 0.051
VCAP PROSTATE | 1.13 ± 0.051 | 1.03 ± 0.057 | 1.08 ± 0.081 | 1.15 ± 0.086 | 0.279 ± 0.024 | 0.141 ± 0.0038 | 0.165 ± 0.0055 | 0.161 ± 0.013 | 1.04 ± 0.12 | 1.06 ± 0.23 | 1.09 ± 0.12 | 1.11 ± 0.14 | 1.13 ± 0.058 | 1.09 ± 0.15 | 0.837 ± 0.07 | 0.722 ± 0.1
MCF7 BREAST | 0.9 ± 0.094 | 0.925 ± 0.068 | 0.94 ± 0.066 | 0.906 ± 0.07 | 0.627 ± 0.02 | 0.465 ± 0.011 | 0.303 ± 0.015 | 0.321 ± 0.01 | 0.84 ± 0.029 | 0.822 ± 0.031 | 0.866 ± 0.058 | 0.767 ± 0.038 | 0.932 ± 0.03 | 0.992 ± 0.025 | 0.97 ± 0.014 | 0.897 ± 0.028
SIHA CERVIX | 1.11 ± 0.1 | 1.1 ± 0.096 | 1.21 ± 0.055 | 1.23 ± 0.095 | 0.423 ± 0.034 | 0.262 ± 0.002 | 0.2 ± 0.0087 | 0.188 ± 0.0084 | 0.88 ± 0.024 | 0.824 ± 0.067 | 0.999 ± 0.038 | 0.97 ± 0.057 | 1.01 ± 0.076 | 0.975 ± 0.043 | 0.875 ± 0.086 | 0.844 ± 0.055
HCC202 BREAST | 1.37 ± 0.51 | 0.842 ± 0.83 | 0.874 ± 0.71 | 1.11 ± 0.68 | 0.514 ± 0.12 | 0.534 ± 0.12 | 0.218 ± 0.053 | 0.186 ± 0.043 | 0.968 ± 0.098 | 0.983 ± 0.18 | 0.865 ± 0.21 | 0.97 ± 0.34 | 1.1 ± 0.043 | 0.86 ± 0.12 | 0.999 ± 0.25 | 0.623 ± 0.085
A549 LUNG | 1 ± 0.046 | 1.01 ± 0.053 | 1.01 ± 0.043 | 0.99 ± 0.045 | 0.895 ± 0.057 | 0.349 ± 0.046 | 0.0613 ± 0.0031 | 0.058 ± 0.0095 | 0.971 ± 0.011 | 0.941 ± 0.029 | 0.978 ± 0.011 | 0.934 ± 0.032 | 1 ± 0.038 | 1.01 ± 0.015 | 1.01 ± 0.033 | 0.983 ± 0.04
SAOS2 BONE | 1.15 ± 0.034 | 1.14 ± 0.075 | 1.16 ± 0.029 | 1.15 ± 0.027 | 0.123 ± 0.015 | 0.0737 ± 0.0011 | 0.076 | 0.0853 ± 0.0029 | 1.08 ± 0.054 | 1.07 ± 0.026 | 1.17 ± 0.026 | 1.07 ± 0.031 | 1.14 ± 0.033 | 1.14 ± 0.1 | 1.11 ± 0.085 | 1.07 ± 0.12
SG43 HEADNECK | 0.971 ± 0.16 | 1.26 ± 0.33 | 0.911 ± 0.033 | 0.865 ± 0.13 | 0.205 ± 0.085 | 0.033 ± 0.004 | 0.0307 ± 0.019 | 0.037 ± 0.003 | 0.866 ± 0.21 | 1.01 ± 0.25 | 0.913 ± 0.11 | 0.952 ± 0.14 | 0.702 ± 0.11 | 0.998 ± 0.28 | 1.17 ± 0.06 | 1.16 ± 0.065
JURKAT HAEMATOPOIETIC AND LYMPHOID TISSUE | 1.06 ± 0.014 | 1.05 ± 0.02 | 0.973 ± 0.082 | 0.942 ± 0.026 | 0.094 ± 0.0027 | 0.0437 ± 0.00058 | 0.0387 ± 0.0023 | 0.0443 ± 0.0011 | 1.095 ± 0.0049 | 1.1 ± 0.02 | 1.09 ± 0.022 | 1.06 ± 0.018 | 1.05 ± 0.015 | 1.06 ± 0.031 | 1 ± 0.027 | 0.997 ± 0.039
SCC47 HEADNECK | 1.09 ± 0.084 | 1.17 ± 0.07 | 1.14 ± 0.069 | 1.12 ± 0.048 | 0.483 ± 0.0098 | 0.184 ± 0.015 | 0.0747 ± 0.0047 | 0.071 ± 0.0027 | 0.936 ± 0.15 | 0.826 ± 0.021 | 1 ± 0.04 | 1.05 ± 0.21 | 1.09 ± 0.17 | 1.03 ± 0.14 | 0.906 ± 0.04 | 0.829 ± 0.11
YAMATO SYNOVIAL | 1.2 ± 0.21 | 1.15 ± 0.13 | 1.23 ± 0.096 | 1.17 ± 0.086 | 0.971 ± 0.21 | 0.339 ± 0.031 | 0.318 ± 0.028 | 0.382 ± 0.031 | 1.12 ± 0.074 | 0.741 ± 0.028 | 1.08 ± 0.076 | 0.241 ± 0.015 | 1.22 ± 0.12 | 0.977 ± 0.081 | 1.15 ± 0.053 | 0.352 ± 0.018
CADOES1 SOFT TISSUE | 0.975 ± 0.13 | 0.967 ± 0.089 | 1.07 ± 0.04 | 0.943 ± 0.11 | 0.365 ± 0.064 | 0.122 ± 0.02 | 0.061 ± 0.0056 | 0.0547 ± 0.00058 | 0.925 ± 0.1 | 0.911 ± 0.12 | 0.777 ± 0.092 | 0.848 ± 0.07 | 0.871 ± 0.087 | 0.899 ± 0.093 | 0.955 ± 0.068 | 1.05 ± 0.02
SUM44 BREAST | 1.02 ± 0.035 | 0.987 ± 0.043 | 0.974 ± 0.013 | 0.867 ± 0.024 | 0.604 ± 0.015 | 0.589 ± 0.04 | 0.495 ± 0.041 | 0.471 ± 0.048 | 0.963 ± 0.096 | 0.978 ± 0.08 | 1.06 ± 0.081 | 1.04 ± 0.058 | 1.13 ± 0.13 | 1.09 ± 0.1 | 1.03 ± 0.071 | 1.01 ± 0.1
MFM223 BREAST | 1.16 ± 0.032 | 1.1 ± 0.029 | 1.06 ± 0.025 | 1.08 ± 0.074 | 0.254 ± 0.014 | 0.152 ± 0.016 | 0.111 ± 0.0051 | 0.116 ± 0.0013 | 1.1 ± 0.12 | 1.14 ± 0.17 | 1.19 ± 0.17 | 1.12 ± 0.17 | 1.06 ± 0.074 | 1.08 ± 0.041 | 1.09 ± 0.036 | 1.02 ± 0.095
